In US11162083B2, “Peptide based inhibitors of Raf kinase protein dimerization and kinase activity” (UNIVERSITY OF SOUTH CAROLINA, priority 2018, dated 2021):

How the values were obtained:
[1] = biological target: dimer interface of B-Raf (Homo sapiens, UniProt P15056); test: Dissociation constant (Kd) determination from intrinsic Trp fluorescence (ITF) measurements; type: binding; details: for Kd, binding affinity to the dimer forming interface of B-Raf (FIG. 1): no unit printed in this block
Method: The dissociation constant is an indicator of binding strength between two molecules. For the reaction: P+L↔PL Kd is expressed by Equation 1: Kd=[P][L]/[PL] Eq. 1 where [P] is the concentration of free Protein, [L] is the concentration of free Ligand, and [PL] is the Ligand-bound-Protein.
Fluorescence intensity was measured with a Hitachi F-2500 fluorescence spectrophotometer. A 1.6 mL of protein solution (0.5 μM) was placed in a cuvette and equilibrated at 15° C. for 1 hour. After equilibration, small increments (2-15 μL) of the ligand solution were injected in the cuvette. The experiments were performed in 20 mM Hepes buffer (pH 7.5), 10 mM MgCl2, 30 mM NaCl. […] The slits were set at 10 and 10 nm in the excitation and emission respectively. To determine dilution effect of B-Raf (due to ligand addition) and any fluorescence effect by unbound ligand, a blank sample containing Trp with the same fluorescence signal, was titrated with ligand additions as described above. The sample absorbance was kept below 0.1 to minimize the inner filter effect.
Dissociation constant of B-Raf/Ligand was calculated by fitting data in Eq. 2.
Data were analyzed using Origin 7, using the one site bind function for nonlinear fit.

[2] = biological target: B-Raf (Homo sapiens, UniProt P15056); type: binding
Chain of B-Raf (P15056 whole entry): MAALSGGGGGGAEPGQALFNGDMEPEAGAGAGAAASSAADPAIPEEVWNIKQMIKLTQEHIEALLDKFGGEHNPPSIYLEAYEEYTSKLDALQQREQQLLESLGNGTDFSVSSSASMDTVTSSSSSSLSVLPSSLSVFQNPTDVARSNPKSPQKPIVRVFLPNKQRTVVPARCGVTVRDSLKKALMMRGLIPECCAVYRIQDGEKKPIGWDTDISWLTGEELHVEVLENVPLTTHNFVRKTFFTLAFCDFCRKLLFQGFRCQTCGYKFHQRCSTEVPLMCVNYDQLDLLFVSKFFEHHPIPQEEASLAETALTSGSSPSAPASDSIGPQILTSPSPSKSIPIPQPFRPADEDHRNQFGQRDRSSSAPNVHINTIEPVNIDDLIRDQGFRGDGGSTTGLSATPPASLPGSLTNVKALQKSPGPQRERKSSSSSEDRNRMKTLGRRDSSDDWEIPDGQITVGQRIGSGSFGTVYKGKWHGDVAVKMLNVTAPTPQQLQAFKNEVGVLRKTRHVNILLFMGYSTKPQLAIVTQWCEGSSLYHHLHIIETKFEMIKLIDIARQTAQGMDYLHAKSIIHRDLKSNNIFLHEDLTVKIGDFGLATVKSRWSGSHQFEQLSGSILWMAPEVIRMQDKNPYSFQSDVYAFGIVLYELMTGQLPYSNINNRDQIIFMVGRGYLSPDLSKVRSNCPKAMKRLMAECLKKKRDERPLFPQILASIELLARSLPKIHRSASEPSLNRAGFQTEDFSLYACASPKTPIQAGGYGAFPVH
From the text: An isothermal titration calorimeter composed of two identical cells surrounded by an adiabatic jacket was used to perform ITC measurements. The thermopile/thermocouple circuits were used to detect temperature differences between a reference cell (filled with buffer or water) and a sample cell containing the macromolecule. During an experiment, ligand is titrated into the sample cell in precisely known aliquots, causing heat to be either taken up or evolved (depending on the nature of the reaction). Measurements consist of the time-dependent input of power required to maintain equal temperatures between the sample and reference cells. In an exothermic reaction, the temperature in the sample cell increases upon addition of ligand. This causes the feedback power to the sample cell to be decreased (remember: a reference power is applied to the reference cell) in order to maintain an equal temperature between the two cells. In an endothermic reaction, the opposite occurs; the feedback circuit increases the power in order to maintain a constant temperature (isothermic/isothermal operation). […] The pattern of these heat effects as a function of the molar ratio [ligand]/[macromolecule] can then be analyzed to give the thermodynamic parameters of the interaction under study.

[3] = test system: NRASQ61K-mutant SBC12 melanoma cells; test: Western blotting of MEK/ERK signaling in melanoma cells; details: peptide added to SBC12 cells; 1 μM PLX4032 or DMSO; Western blot
Method: Following recovery at 37° C. for 30 minutes, the cells were treated with 1 μM PLX4032 for 1 hour or DMSO as a vehicle control. Subsequently, the cells were harvested, lysed using RIPA buffer and analyzed by Western blotting using the indicated antibodies. […] Four hours prior to harvest, the cells were treated with 1 μM vemurafenib (PLX4032), or the same volume of DMSO as vehicle control. RIPA buffer lysates were subjected to Western blotting using the indicated antibodies. Detection of HSP90 serves as a representative loading control.
Following recovery at 37° C. for 30 minutes, cells were treated with 1 μM PLX4032 for 1 hour or DMSO as a vehicle control. Subsequently, the cells were harvested, lysed using RIPA buffer, and analyzed by Western blotting using the indicated antibodies.

Chain of dimer interface of B-Raf (P15056 whole entry): as above

Molecule: CC[C@H](C)[C@H](NC(=O)[C@H](CC(N)=O)NC(=O)[C@@H](NC(=O)[C@H](Cc1cnc[nH]1)NC(=O)[C@H](CCCNC(=N)N)NC(=O)[C@@H](NC(=O)[C@H](CCCCN)NC(=O)[C@H](CCCNC(=N)N)NC(=O)[C@H](CC(C)C)NC(=O)[C@@H](NC(=O)CN)C(C)C)[C@@H](C)O)C(C)C)C(=O)N[C@@H](CC(C)C)C(=O)N[C@@H](CC(C)C)C(=O)N[C@@H](Cc1ccccc1)C(=O)N[C@@H](CCSC)C(=O)NCC(=O)N[C@@H](Cc1ccc(O)cc1)C(=O)N[C@@H](CO)C(=O)N[C@H](C(=O)O)[C@@H](C)O [SEQ ID NO: 1]
- Kd [1]: ~3.84 µM

Molecule: CC[C@H](C)[C@H](NC(=O)[C@H](CC(N)=O)NC(=O)[C@@H](NC(=O)[C@H](Cc1cnc[nH]1)NC(=O)[C@H](CCCNC(=N)N)NC(=O)[C@@H](NC(=O)[C@H](CCCCN)NC(=O)[C@H](CC(C)C)NC(=O)[C@H](CC(C)C)NC(=O)[C@@H](NC(=O)CN)C(C)C)[C@@H](C)O)C(C)C)C(=O)N[C@@H](CC(C)C)C(=O)N[C@@H](CC(C)C)C(=O)N[C@@H](Cc1ccccc1)C(=O)N[C@@H](CCSC)C(=O)NCC(=O)N[C@@H](Cc1ccc(O)cc1)C(=O)N[C@@H](CO)C(=O)N[C@H](C(=O)O)[C@@H](C)O [SEQ ID NO: 6]
- Kd [1]: ~0.54 µM

Molecule: CC[C@H](C)[C@H](NC(=O)[C@H](CC(N)=O)NC(=O)[C@@H](NC(=O)[C@H](Cc1c[nH]cn1)NC(=O)[C@H](CCCNC(=N)N)NC(=O)[C@H](C)NC(=O)[C@H](CCCCN)NC(=O)[C@H](CCCNC(=N)N)NC(=O)[C@H](CC(C)C)NC(=O)[C@@H](NC(=O)CN)C(C)C)C(C)C)C(=O)N[C@@H](CC(C)C)C(=O)N[C@@H](CC(C)C)C(=O)N[C@@H](Cc1ccccc1)C(=O)N[C@@H](CCSC)C(=O)NCC(=O)N[C@@H](Cc1ccc(O)cc1)C(=O)N[C@@H](CO)C(=O)N[C@H](C(=O)O)[C@@H](C)O [SEQ ID NO: 8]
- ΔH of binding (ITC) [2]: -34.8 kJ/mol
- ΔS of binding (ITC) [2]: −28.4 J/mol·K

Molecule: CC[C@H](C)[C@H](NC(=O)[C@H](CC(N)=O)NC(=O)[C@@H](NC(=O)[C@H](Cc1c[nH]cn1)NC(=O)[C@H](CCCNC(=N)N)NC(=O)[C@@H](NC(=O)[C@H](CCCCN)NC(=O)[C@H](CCCNC(=N)N)NC(=O)[C@H](CC(C)C)NC(=O)[C@@H](N)C(C)C)[C@@H](C)O)C(C)C)C(=O)N[C@@H](CC(C)C)C(=O)N[C@@H](CC(C)C)C(=O)N[C@@H](Cc1ccccc1)C(=O)N[C@@H](CCSC)C(=O)NCC(=O)O [SEQ ID NO: 17]
- downstream signaling of MEK and ERK (pMEK, pERK) [3]: reduce downstream signaling of MEK and ERK

Molecule: GVLRKTHHVNILGFWGYST [SEQ ID NO: 2]
- Kd, binding affinity to the dimer forming interface of B-Raf (FIG. 1) [1]: no measurable binding

Molecule: GVLRKTRFVNILLFMGYST [SEQ ID NO: 9]
- Kd, binding affinity to the dimer forming interface of B-Raf (FIG. 1) [1]: no measurable binding

Molecule: GVLRKTRHVNILLDMGYST [SEQ ID NO: 14]
- Kd, binding affinity to the dimer forming interface of B-Raf (FIG. 1) [1]: no measurable binding
